Data as given in ChEMBL document CHEMBL1687836, “Oral hexadecyloxypropyl-cidofovir therapy in pregnant guinea pigs improves outcome in the congenital model of cytomegalovirus infection” (Antimicrob Agents Chemother, 2011).
Active and inactive are the calls of the source. No cut-off for these calls is given here.

Assays:
Cavia porcellus [1] = experiment: Toxicity in Guinea pig cytomegalovirus strain 22122 infected second and third trimesters of pregnant Hartley guinea pig assessed as animal weight loss at 4 mg/kg, po treatment started at 24 hrs post infection for 5 consecutive days; assay type: organism-based; set-up: dose 4 mg/kg, route oral; details: in vivo
Caviid betaherpesvirus 2 [2] = experiment: Antiviral activity against Guinea pig cytomegalovirus strain 22122 infected in second and third trimesters of pregnant Hartley guinea pig assessed as reduction in dam blood viral log10 genome copies/ug of DNA at 20 mg/kg, po once at 24 hrs post infection and once at 7 days post infection (reference value: 3.22 +/- 0.2 log10 genome copies/ug DNA); assay type: functional
Cavia porcellus [3] = experiment: Toxicity in Guinea pig cytomegalovirus strain 22122 infected second and third trimesters of pregnant Hartley guinea pig assessed as low birth weight pups at 4 mg/kg, po treatment started at 24 hrs post infection for 5 consecutive days (reference value: 107 +/- 10 g); assay type: organism-based; set-up: dose 4 mg/kg, route oral; details: in vivo
Cavia porcellus [4] = experiment: Toxicity in Guinea pig cytomegalovirus strain 22122 infected second and third trimesters of pregnant Hartley guinea pig assessed as dam kidney toxicity at 4 mg/kg, po treatment started at 24 hrs post infection for 9 consecutive days; assay type: organism-based; set-up: dose 4 mg/kg, route oral; details: in vivo
Cavia porcellus [5] = experiment: Toxicity in Guinea pig cytomegalovirus strain 22122 infected second and third trimesters of pregnant Hartley guinea pig assessed as decreased animal activity at 20 mg/kg, po once at 24 hrs post infection and once 7 days post infection; assay type: organism-based; set-up: dose 20 mg/kg, route oral; details: in vivo
Caviid betaherpesvirus 2 [6] = experiment: (§1) Antiviral activity against Guinea pig cytomegalovirus strain 22122 infected in second and third trimesters of pregnant Hartley guinea pig assessed as fetus spleen viral log10 genome copies/ug of DNA at 4 mg/kg, po qd for 5 days measured 10 days post infection by real-time PCR (reference value: 1.63 +/- 0.6 log10 genome copies/ug of DNA); assay type: functional
Caviid betaherpesvirus 2 [7] = experiment: Antiviral activity against Guinea pig cytomegalovirus strain 22122 infected in second and third trimesters of pregnant Hartley guinea pig assessed as fetus liver with detectable viral DNA at 4 mg/kg, po qd for 9 days measured 10 days post infection by real-time PCR (reference value: 87%); assay type: functional
Cavia porcellus [8] = experiment: Toxicity in Guinea pig cytomegalovirus strain 22122 infected second and third trimesters of pregnant Hartley guinea pig assessed as animal weight loss at 20 mg/kg, po once at 24 hrs post infection and once 7 days post infection; assay type: organism-based; set-up: dose 20 mg/kg, route oral; details: in vivo
Caviid betaherpesvirus 2 [9] = experiment: as §1, with “dam liver” for “fetus spleen”, “9” for “5”, “4.82” for “1.63”, “0.8” for “0.6”; assay type: functional
Caviid betaherpesvirus 2 [10] = experiment: Antiviral activity against Guinea pig cytomegalovirus strain 22122 infected in second and third trimesters of pregnant Hartley guinea pig assessed as reduction in pups with detectable viral DNA at 20 mg/kg, po once at 24 hrs post infection and once at 7 days post infection; assay type: functional, organism-based; set-up: dose 20 mg/kg; details: Guinea pig cytomegalovirus (strain 22122 / ATCC VR682) (GPCMV)
Caviid betaherpesvirus 2 [11] = experiment: as §1, with “dam liver” for “fetus spleen”, “4.82” for “1.63”, “0.8” for “0.6”; assay type: functional
Caviid betaherpesvirus 2 [12] = experiment: Antiviral activity against Guinea pig cytomegalovirus strain 22122 infected in second and third trimesters of pregnant Hartley guinea pig assessed as dam spleen with detectable viral DNA at 4 mg/kg, po qd for 9 days measured 10 days post infection by real-time PCR (reference value: 100%); assay type: functional
Caviid betaherpesvirus 2 [13] = experiment: Antiviral activity against Guinea pig cytomegalovirus strain 22122 infected in second and third trimesters of pregnant Hartley guinea pig assessed as dam liver with detectable viral DNA at 4 mg/kg, po qd for 5 days measured 10 days post infection by real-time PCR (reference value: 100%); assay type: functional
Cavia porcellus [14] = experiment: Toxicity in Guinea pig cytomegalovirus strain 22122 infected second and third trimesters of pregnant Hartley guinea pig assessed as pup kidney toxicity at 4 mg/kg, po treatment started at 24 hrs post infection for 9 consecutive days; assay type: organism-based; set-up: dose 4 mg/kg, route oral; details: in vivo
Caviid betaherpesvirus 2 [15] = experiment: Antiviral activity against Guinea pig cytomegalovirus strain 22122 infected in second and third trimesters of pregnant Hartley guinea pig assessed as dam placenta with detectable viral DNA at 4 mg/kg, po qd for 5 days measured 10 days post infection by real-time PCR (reference value: 100%); assay type: functional
Caviid betaherpesvirus 2 [16] = experiment: Antiviral activity against Guinea pig cytomegalovirus strain 22122 infected in second and third trimesters of pregnant Hartley guinea pig assessed as pregnancy outcome measured as live-born pups at 20 mg/kg, po once at 24 hrs post infection and once 7 days post infection; assay type: functional
Caviid betaherpesvirus 2 [17] = experiment: Antiviral activity against Guinea pig cytomegalovirus strain 22122 infected in second and third trimesters of pregnant Hartley guinea pig assessed as reduction in viral DNA level in pup spleen at 20 mg/kg, po once at 24 hrs post infection and once at 7 days post infection relative to control pup; assay type: functional
Caviid betaherpesvirus 2 [18] = experiment: as §1, with “dam” for “fetus”, “9” for “5”, “4.12” for “1.63”, “0.3” for “0.6”; assay type: functional
Caviid betaherpesvirus 2 [19] = experiment: as §1, with “9” for “5”; assay type: functional
Caviid betaherpesvirus 2 [20] = experiment: Antiviral activity against Guinea pig cytomegalovirus strain 22122 infected in second and third trimesters of pregnant Hartley guinea pig assessed as reduction in viral DNA level in pup liver at 20 mg/kg, po once at 24 hrs post infection and once at 7 days post infection relative to control pup; assay type: functional
Caviid betaherpesvirus 2 [21] = experiment: Antiviral activity against Guinea pig cytomegalovirus strain 22122 infected in second and third trimesters of pregnant Hartley guinea pig assessed as pup spleen containing detectable viral DNA at 20 mg/kg, po once at 24 hrs post infection and once at 7 days post infection (reference value: 44%); assay type: functional
Caviid betaherpesvirus 2 [22] = experiment: Antiviral activity against Guinea pig cytomegalovirus strain 22122 infected in second and third trimesters of pregnant Hartley guinea pig assessed as fetus spleen with detectable viral DNA at 4 mg/kg, po qd for 5 days measured 10 days post infection by real-time PCR (reference value: 47%); assay type: functional
Caviid betaherpesvirus 2 [23] = experiment: Antiviral activity against Guinea pig cytomegalovirus strain 22122 infected in second and third trimesters of pregnant Hartley guinea pig assessed as pregnancy outcome measured as live-born pups at 4 mg/kg, po treatment started at 24 hrs post infection for 5 consecutive days (reference value: 62.5%); assay type: functional
Caviid betaherpesvirus 2 [24] = experiment: as §1, with “dam” for “fetus”, “4.12” for “1.63”, “0.3” for “0.6”; assay type: functional
Caviid betaherpesvirus 2 [25] = experiment: Antiviral activity against Guinea pig cytomegalovirus strain 22122 infected in second and third trimesters of pregnant Hartley guinea pig assessed as pup liver containing detectable viral DNA at 20 mg/kg, po once at 24 hrs post infection and once at 7 days post infection (reference value: 73%); assay type: functional
Caviid betaherpesvirus 2 [26] = experiment: Antiviral activity against Guinea pig cytomegalovirus strain 22122 infected in second and third trimesters of pregnant Hartley guinea pig assessed as dam spleen with detectable viral DNA at 4 mg/kg, po qd for 5 days measured 10 days post infection by real-time PCR (reference value: 100%); assay type: functional
Caviid betaherpesvirus 2 [27] = experiment: Antiviral activity against Guinea pig cytomegalovirus strain 22122 infected guinea pig CCL158 cells assessed as plaque reduction measured after 10 days by plaque reduction assay; assay type: functional, organism-based; details: Caviid betaherpesvirus 2, CCL158, 240 h
Caviid betaherpesvirus 2 [28] = experiment: Antiviral activity against Guinea pig cytomegalovirus strain 22122 infected in second and third trimesters of pregnant Hartley guinea pig assessed as reduction in viral DNA level in dam liver at 20 mg/kg, po once at 24 hrs post infection and once at 7 days post infection relative to dam control; assay type: functional
Caviid betaherpesvirus 2 [29] = experiment: Antiviral activity against Guinea pig cytomegalovirus strain 22122 infected in second and third trimesters of pregnant Hartley guinea pig assessed as fetus liver with detectable viral DNA at 4 mg/kg, po qd for 5 days measured 10 days post infection by real-time PCR (reference value: 87%); assay type: functional
Cavia porcellus [30] = experiment: Toxicity in Guinea pig cytomegalovirus strain 22122 infected second and third trimesters of pregnant Hartley guinea pig assessed as decreased animal activity at 4 mg/kg, po treatment started at 24 hrs post infection for 5 consecutive days; assay type: organism-based; set-up: dose 4 mg/kg, route oral; details: in vivo
Caviid betaherpesvirus 2 [31] = experiment: Antiviral activity against Guinea pig cytomegalovirus strain 22122 infected in second and third trimesters of pregnant Hartley guinea pig assessed as fetus spleen with detectable viral DNA at 4 mg/kg, po qd for 9 days measured 10 days post infection by real-time PCR (reference value: 47%); assay type: functional
Cavia porcellus [32] = experiment: Toxicity in Guinea pig cytomegalovirus strain 22122 infected second and third trimesters of pregnant Hartley guinea pig assessed as adverse effect on complete blood count in new born pups at 4 mg/kg, po treatment started at 24 hrs post infection for 9 consecutive days; assay type: organism-based; set-up: dose 4 mg/kg, route oral; details: in vivo
Cavia porcellus [33] = experiment: Toxicity in Guinea pig cytomegalovirus strain 22122 infected second and third trimesters of pregnant Hartley guinea pig assessed as pup liver toxicity at 4 mg/kg, po treatment started at 24 hrs post infection for 9 consecutive days; assay type: organism-based; set-up: dose 4 mg/kg, route oral; details: in vivo
Caviid betaherpesvirus 2 [34] = experiment: Antiviral activity against Guinea pig cytomegalovirus strain 22122 infected in second and third trimesters of pregnant Hartley guinea pig assessed as increase in pup survival at 20 mg/kg, po once at 24 hrs post infection and once at 7 days post infection; assay type: functional, organism-based; set-up: dose 20 mg/kg; details: Guinea pig cytomegalovirus (strain 22122 / ATCC VR682) (GPCMV)
Cavia porcellus [35] = experiment: Toxicity in Guinea pig cytomegalovirus strain 22122 infected second and third trimesters of pregnant Hartley guinea pig assessed as adverse effect on complete blood count at 4 mg/kg, po treatment started at 24 hrs post infection for 9 consecutive days; assay type: organism-based; set-up: dose 4 mg/kg, route oral; details: in vivo
Caviid betaherpesvirus 2 [36] = experiment: as §1, with “liver” for “spleen”, “9” for “5”, “2.20” for “1.63”; assay type: functional
Cavia porcellus [37] = experiment: Toxicity in Guinea pig cytomegalovirus strain 22122 infected second and third trimesters of pregnant Hartley guinea pig assessed as dam liver toxicity at 4 mg/kg, po treatment started at 24 hrs post infection for 9 consecutive days; assay type: organism-based; set-up: dose 4 mg/kg, route oral; details: in vivo
Caviid betaherpesvirus 2 [38] = experiment: Antiviral activity against Guinea pig cytomegalovirus strain 22122 infected in second and third trimesters of pregnant Hartley guinea pig assessed as reduction in viral DNA level in dam spleen at 20 mg/kg, po once at 24 hrs post infection and once at 7 days post infection relative to dam control; assay type: functional
[39] = Cytotoxicity against guinea pig CCL158 cells after 10 days by crystal violet staining; assay type: cell-based, Cavia porcellus
Caviid betaherpesvirus 2 [40] = experiment: Antiviral activity against Guinea pig cytomegalovirus strain 22122 infected in second and third trimesters of pregnant Hartley guinea pig assessed as dam liver with detectable viral DNA at 4 mg/kg, po qd for 9 days measured 10 days post infection by real-time PCR (reference value: 100%); assay type: functional
Caviid betaherpesvirus 2 [41] = experiment: as §1, with “liver” for “spleen”, “2.20” for “1.63”; assay type: functional
Caviid betaherpesvirus 2 [42] = experiment: Antiviral activity against Guinea pig cytomegalovirus strain 22122 infected in second and third trimesters of pregnant Hartley guinea pig assessed as dam placenta with detectable viral DNA at 4 mg/kg, po qd for 9 days measured 10 days post infection by real-time PCR (reference value: 100%); assay type: functional
[43] = Selectivity index, ratio of CC50 for guinea pig CCL158 cells to IC50 for Guinea pig cytomegalovirus strain 22122; assay type: functional
Caviid betaherpesvirus 2 [44] = experiment: Antiviral activity against Guinea pig cytomegalovirus strain 22122 infected in second and third trimesters of pregnant Hartley guinea pig assessed as reduction in dam viremia at 4 mg/kg, po qd for 5 days; assay type: functional, organism-based; set-up: dose 4 mg/kg; details: Guinea pig cytomegalovirus (strain 22122 / ATCC VR682) (GPCMV)
Cavia porcellus [45] = experiment: Toxicity in Guinea pig cytomegalovirus strain 22122 infected second and third trimesters of pregnant Hartley guinea pig assessed as low birth weight pups at 20 mg/kg, po once at 24 hrs post infection and once 7 days post infection (reference value: 107 +/- 10 g); assay type: organism-based; set-up: dose 20 mg/kg, route oral; details: in vivo

EC50 (Caviid betaherpesvirus 2 [27]): 4 nM
Structure (SMILES): CCCCCCCCCCCCCCCCOCCCOP(=O)(O)CO[C@H](CO)Cn1ccc(N)nc1=O [BRINCIDOFOVIR]
Activity (Cavia porcellus [1]): Non-toxic
Activity (Caviid betaherpesvirus 2 [2]): 2.88
Activity (Cavia porcellus [3]): 103 g
Activity (Cavia porcellus [4]): Non-toxic
Activity (Cavia porcellus [5]): Non-toxic
Activity (Caviid betaherpesvirus 2 [6]): 1.91
Activity (Caviid betaherpesvirus 2 [7]): 85%
Activity (Cavia porcellus [8]): Non-toxic
Activity (Caviid betaherpesvirus 2 [9]): 3.01
Activity (Caviid betaherpesvirus 2 [10]): Active
Activity (Caviid betaherpesvirus 2 [11]): 2.98
Activity (Caviid betaherpesvirus 2 [12]): 100%
Activity (Caviid betaherpesvirus 2 [13]): 100%
Activity (Cavia porcellus [14]): Non-toxic
Activity (Caviid betaherpesvirus 2 [15]): 100%
Activity (Caviid betaherpesvirus 2 [16]): 93.8%
fold change (FC) (Caviid betaherpesvirus 2 [17]): 6
Activity (Caviid betaherpesvirus 2 [18]): 2.09
Activity (Caviid betaherpesvirus 2 [19]): 1.65
fold change (FC) (Caviid betaherpesvirus 2 [20]): 10.5
Activity (Caviid betaherpesvirus 2 [21]): 25%
Activity (Caviid betaherpesvirus 2 [22]): 77%
Activity (Caviid betaherpesvirus 2 [23]): 100%
Activity (Caviid betaherpesvirus 2 [24]): 2.77
Activity (Caviid betaherpesvirus 2 [25]): 57%
Activity (Caviid betaherpesvirus 2 [26]): 100%
fold change (FC) (Caviid betaherpesvirus 2 [28]): 6.5
Activity (Caviid betaherpesvirus 2 [29]): 92%
Activity (Cavia porcellus [30]): Non-toxic
Activity (Caviid betaherpesvirus 2 [31]): 62%
Activity (Cavia porcellus [32]): Non-toxic
Activity (Cavia porcellus [33]): Non-toxic
Activity (Caviid betaherpesvirus 2 [34]): Active
Activity (Cavia porcellus [35]): Non-toxic
Activity (Caviid betaherpesvirus 2 [36]): 1.87
Activity (Cavia porcellus [37]): Non-toxic
fold change (FC) (Caviid betaherpesvirus 2 [38]): 5
CC50 at 240 h [39]: > 100000 nM
Activity (Caviid betaherpesvirus 2 [40]): 100%
Activity (Caviid betaherpesvirus 2 [41]): 2.12
Activity (Caviid betaherpesvirus 2 [42]): 100%
Selectivity Index [43]: >25000
Activity (Caviid betaherpesvirus 2 [44]): Active
Activity (Cavia porcellus [45]): 103 g
